Assay results from patent publication US11142515B2, “Pyrazolyl-ureas as kinase inhibitors” (RESPIVERT LIMITED, priority 2014, dated 2021).

How the values were obtained:
[1] = system: TNFα release in d-U937 cells; assay: LPS-induced TNFα release in d-U937 cells; type: cell-based; conditions: Homo sapiens, dU937; read-out: LPS Induced Release TNFα REC50 (dU937); note: relative to 10 µg/mL BIRB-796
Description: U937 cells, a human monocytic cell line, were differentiated into macrophage-type cells by incubation with PMA (100-200 ng/mL) for 48 to 72 h. Cells were pre-incubated with final […] concentrations of test compound for 2 h and were then stimulated with LPS (0.1 μg/mL; from E. coli: O111:B4, Sigma) for 4 h. The supernatant was collected for determination of TNFα and IL-8 concentrations by sandwich ELISA (Duo-set, R&D systems). […] The relative 50% effective concentration (REC50) was determined from the resultant concentration-response curve. The inhibition of IL-8 production was calculated at each concentration of test compound by comparison with vehicle control.

Syk = target: T1, Syk (Homo sapiens, UniProt P43405); assay: Syk enzyme inhibition (Z-LYTE FRET); type: biochemical; conditions: Table 2A
T1 construct: purchased Life Technologies
Description: The enzyme inhibitory activities of compounds disclosed herein were determined by FRET using synthetic peptides labelled with both donor and acceptor fluorophores (Z-LYTE, Life Technologies, Paisley, UK).
The relevant enzyme (1000 ng/mL, 1400 ng/mL or 2000 ng/mL respectively, 2.5 μL) was incubated with the test compound (either 40 μg/mL, 12 μg/mL, 4 μg/mL, 1.2 μg/mL, 0.4 μg/mL, 0.12 μg/mL, 0.04 μg/mL, 0.012 μg/mL, 0.004 μg/mL or 0.0012 μg/mL, 2.5 μL each) for 2 h at RT. The FRET peptides (8 μM, 2.5 μL), and appropriate ATP solutions (2.5 μL, 800 μM for c-Src, and 60 μM ATP for HCK and Syk) were then added to the enzyme/compound mixtures and incubated for 1 h at RT. Development reagent (protease, 5 μL) was added for 1 h prior to detection in a fluorescence microplate reader (EnVision, Perkin Elmer).
In all cases, the site-specific protease cleaves non-phosphorylated peptide only and eliminates the FRET signal. Phosphorylation levels of each reaction were calculated using the ratio of coumarin emission (donor) over fluorescein emission (acceptor), for which low ratios indicate high phosphorylation and high ratios indicate low phosphorylation levels.

p38MAPKγ (MAPK12) = target: T2, p38MAPKγ (MAPK12) (Homo sapiens, UniProt P53778); assay: p38 MAPKγ enzyme inhibition (Z-LYTE FRET); type: biochemical; conditions: Table 2A; read-out: IC50 Values for Enzyme Inhibition p38 MAPKγ
T2 construct: purchased Life Technologies
T2 sequence (P53778 1-367): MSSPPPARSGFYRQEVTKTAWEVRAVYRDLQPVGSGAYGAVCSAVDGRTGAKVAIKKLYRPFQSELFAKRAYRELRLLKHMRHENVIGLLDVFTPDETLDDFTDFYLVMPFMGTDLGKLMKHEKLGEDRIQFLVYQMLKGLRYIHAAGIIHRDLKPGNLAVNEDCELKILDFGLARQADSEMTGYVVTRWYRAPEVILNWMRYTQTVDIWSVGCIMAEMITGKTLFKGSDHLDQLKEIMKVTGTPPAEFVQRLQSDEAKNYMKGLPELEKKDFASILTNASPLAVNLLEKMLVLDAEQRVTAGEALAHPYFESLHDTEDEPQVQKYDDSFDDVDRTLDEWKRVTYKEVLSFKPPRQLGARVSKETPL
Procedure, shortened: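 Enzyme (added at 800 ng/mL) was preincubated 2 h at RT with compound (solutions of 40 to 0.0012 μg/mL), then FRET peptide (8 μM) and ATP (400 μM), both as added, were reacted 1 h at RT. Protease development followed for 1 h; phosphorylation was read as the coumarin/fluorescein emission ratio.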

d-U937 cells = assay: Cell viability: MTT assay in differentiated U937 cells; type: cell-based, human; conditions: 10 μg/mL
Description: Differentiated U937 cells were pre-incubated with each test compound (final concentration 10 μg/mL in 200 μL media indicated below) under two protocols: the first for 4 h in 5% FCS RPMI1640 media and the second in 10% FCS RPMI1640 media for 24 h. The supernatant was replaced with new media (200 μL) and MTT stock solution (10 μL, 5 mg/mL) was added to each well. After incubation for 1 h the media were removed, DMSO (200 μL) was added to each well and the plates were shaken lightly for 1 h prior to reading the absorbance at 550 nm. The percentage loss of cell viability was calculated for each well relative to vehicle (0.5% DMSO) treatment. Consequently an apparent increase in cell viability for drug treatment relative to vehicle is tabulated as a negative percentage.

| SMILES | EC50 [1] | IC50 (Syk) | IC50 (p38MAPKγ (MAPK12)) | MTT Assay Cell viability at time point indicated in d-U937 Cells, 4 h (d-U937 cells) | MTT Assay Cell viability at time point indicated in d-U937 Cells, 24 h (d-U937 cells) |
| --- | --- | --- | --- | --- | --- |
| Cc1cccc(-n2nc(C(C)(C)C)cc2NC(=O)Nc2ccc(OCc3ccnc(Nc4cnccn4)c3)c3ccccc23)c1 [Example 40] | 3 nM | > 16700 nM | 79 nM | − (−ve and +ve indicate the value is below and above, respectively, the no significant effect threshold defined as 30% inhibition at 10 μg/mL at the time point indicated) | − (−ve and +ve indicate the value is below and above, respectively, the no significant effect threshold defined as 30% inhibition at 10 μg/mL at the time point indicated) |
| Cc1ccc(-n2nc(C(C)(C)C)cc2NC(=O)Nc2ccc(OCc3ccnc(Nc4cncc(N(C)C)n4)c3)c3ccccc23)cc1 [Example 14] | 2.9 nM | > 15600 nM | 237 nM | − (−ve and +ve indicate the value is below and above, respectively, the no significant effect threshold defined as 30% inhibition at 10 μg/mL at the time point indicated) | − (−ve and +ve indicate the value is below and above, respectively, the no significant effect threshold defined as 30% inhibition at 10 μg/mL at the time point indicated) |
| Cc1ccc(-n2nc(C(C)(C)C)cc2NC(=O)Nc2ccc(OCc3ccnc(Nc4cnc(C5CC5)cn4)c3)c3ccccc23)cc1 [Example 16] | 144 nM | > 15700 nM | > 7150 nM | − (−ve and +ve indicate the value is below and above, respectively, the no significant effect threshold defined as 30% inhibition at 10 μg/mL at the time point indicated) | − (−ve and +ve indicate the value is below and above, respectively, the no significant effect threshold defined as 30% inhibition at 10 μg/mL at the time point indicated) |
| Cc1ccc(-n2nc(C(C)(C)C)cc2NC(=O)Nc2ccc(OCc3ccnc(Nc4cncc(CC(=O)N(C)C)n4)c3)c3ccccc23)cc1 [Example 8, 2-(6-((4-(((4-(3-(3-(tert-butyl)-1-(p-tolyl)-1H-pyrazol-5-yl)ureido)naphthalen-1-yl)oxy)methyl)pyridin-2-yl)amino)pyrazin-2-yl)-N,N-dimethylacetamide] | 3.9 nM | > 14600 nM | 43 nM | − (−ve and +ve indicate the value is below and above, respectively, the no significant effect threshold defined as 30% inhibition at 10 μg/mL at the time point indicated) | + (−ve and +ve indicate the value is below and above, respectively, the no significant effect threshold defined as 30% inhibition at 10 μg/mL at the time point indicated) |
| Cc1ccc(-n2nc(C(C)(C)C)cc2NC(=O)Nc2ccc(OCc3ccnc(Nc4cnc(CC(N)=O)cn4)c3)c3ccccc23)cc1 [Example 30] | 5.2 nM | > 15200 nM | 29 nM | − (−ve and +ve indicate the value is below and above, respectively, the no significant effect threshold defined as 30% inhibition at 10 μg/mL at the time point indicated) | − (−ve and +ve indicate the value is below and above, respectively, the no significant effect threshold defined as 30% inhibition at 10 μg/mL at the time point indicated) |
| CCc1ccc(-n2nc(C(C)(C)C)cc2NC(=O)Nc2ccc(OCc3ccnc(Nc4cnccn4)c3)c3ccccc23)cc1 [Example 42] | 4.3 nM | > 16300 nM | 521 nM | − (−ve and +ve indicate the value is below and above, respectively, the no significant effect threshold defined as 30% inhibition at 10 μg/mL at the time point indicated) | − (−ve and +ve indicate the value is below and above, respectively, the no significant effect threshold defined as 30% inhibition at 10 μg/mL at the time point indicated) |
| Cc1ccc(-n2nc(C(C)(C)C)cc2NC(=O)Nc2ccc(OCc3ccnc(Nc4cncc(C5CCCC5)n4)c3)c3ccccc23)cc1 [Example 48] | 0.3 nM | > 15000 nM | 1230 nM | − (−ve and +ve indicate the value is below and above, respectively, the no significant effect threshold defined as 30% inhibition at 10 μg/mL at the time point indicated) | − (−ve and +ve indicate the value is below and above, respectively, the no significant effect threshold defined as 30% inhibition at 10 μg/mL at the time point indicated) |
| CC(C)(C)c1cc(NC(=O)Nc2ccc(OCc3ccnc(Nc4cnccn4)c3)c3ccccc23)n(-c2cccc(F)c2)n1 [Example 49] | 2.3 nM | 9250 nM | 129 nM | − (−ve and +ve indicate the value is below and above, respectively, the no significant effect threshold defined as 30% inhibition at 10 μg/mL at the time point indicated) | − (−ve and +ve indicate the value is below and above, respectively, the no significant effect threshold defined as 30% inhibition at 10 μg/mL at the time point indicated) |
| COc1ccc(-n2nc(C(C)(C)C)cc2NC(=O)Nc2ccc(OCc3ccnc(Nc4cnccn4)c3)c3ccccc23)cc1 [Example 38] | 2.7 nM | > 16300 nM | > 16300 nM | − (−ve and +ve indicate the value is below and above, respectively, the no significant effect threshold defined as 30% inhibition at 10 μg/mL at the time point indicated) | − (−ve and +ve indicate the value is below and above, respectively, the no significant effect threshold defined as 30% inhibition at 10 μg/mL at the time point indicated) |
| CC(C)(C)c1cc(NC(=O)Nc2ccc(OCc3ccnc(Nc4cnccn4)c3)c3ccccc23)n(-c2ccc(Cl)cc2)n1 [Example 45] | 3.5 nM | > 16200 nM | > 16200 nM | − (−ve and +ve indicate the value is below and above, respectively, the no significant effect threshold defined as 30% inhibition at 10 μg/mL at the time point indicated) | − (−ve and +ve indicate the value is below and above, respectively, the no significant effect threshold defined as 30% inhibition at 10 μg/mL at the time point indicated) |
| Cc1ccc(-n2nc(C(C)(C)C)cc2NC(=O)Nc2ccc(OCc3ccnc(Nc4cncc(CO)n4)c3)c3ccccc23)cc1 [Example 21] | 0.6 nM | > 15900 nM | 31 nM | − (−ve and +ve indicate the value is below and above, respectively, the no significant effect threshold defined as 30% inhibition at 10 μg/mL at the time point indicated) | − (−ve and +ve indicate the value is below and above, respectively, the no significant effect threshold defined as 30% inhibition at 10 μg/mL at the time point indicated) |
